The values below come from ChEMBL document CHEMBL4359923, “One-step Heck Reaction Generates Nonimmunosuppressive FK506 Analogs for Pharmacological BMP Activation” (ACS Med Chem Lett, 2019).

Structures are written as SMILES. Activity calls are given as the source filed them. The rule behind the calls is not given here.

Series [1] deals with HUVEC. The series can be described thus: Cytotoxicity against human HUVEC cells assessed as inhibition of cell growth at 1 to 10 uM measured after 72 hrs by resazurin dye based assay.
The target in series [2] is T1, Peptidyl-prolyl cis-trans isomerase FKBP1A (Homo sapiens, UniProt P62942). As to the kind of experiment: Inhibition of FKBP12-mediated calcineurin activation in PMA/ionomycin stimulated human Jurkat cells transfected with NFAT-Luc assessed as reduction in NFAT reporter activity at 1 uM pretreated for 30 mins prior to PMA/ionomycin activation measured after 6 hrs by luciferase reporter assay. In kind it is cell-based. (A reporter such as luciferase makes a cellular process visible.)
T1 sequence (P62942 whole entry): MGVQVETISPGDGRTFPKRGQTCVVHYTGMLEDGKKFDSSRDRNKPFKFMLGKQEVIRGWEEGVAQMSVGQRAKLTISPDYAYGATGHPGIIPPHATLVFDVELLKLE

In series [3] the target is T1, Peptidyl-prolyl cis-trans isomerase FKBP1A. As to the kind of experiment: Activation of FKBP12-mediated BMP signaling pathway in human Jurkat cells transfected with BRE-Luc at 1 nM to 1 uM measured after 18 hrs by luciferase reporter assay. The series is classed as cell-based.
The target is the same in series [4]. The series can be described thus: Inhibition of FKBP12-mediated calcineurin activation in PMA/ionomycin stimulated human Jurkat cells transfected with NFAT-Luc assessed as NFAT reporter activity up to 10 uM pretreated for 30 mins prior to PMA/ionomycin activation measured after 6 hrs by luciferase reporter assay. In kind it is cell-based.
The target is the same in series [5]. The series can be described thus: Induction of FKBP12-mediated SMAD1/5 phosphorylation in human Jurkat cells measured after 2 hrs by Western blot analysis. In kind it is cell-based.
Series [6] has as its system HUVEC. As to the kind of experiment: Cytotoxicity against human HUVEC cells assessed as inhibition of cell growth at 10 uM measured after 72 hrs by resazurin dye based assay.

Take `CO[C@H]1C[C@@H](C)C/C(C)=C/[C@@H](C/C=C/c2cccc(N)c2)C(=O)C[C@H](O)[C@@H](C)[C@@H](/C(C)=C/[C@@H]2CC[C@@H](O)[C@H](OC)C2)OC(=O)[C@@H]2CCCCN2C(=O)C(=O)[C@]2(O)O[C@H]1[C@@H](OC)C[C@H]2C`: the Activity result with HUVEC [1] was “Toxic”. Also, the “inhibition (INH)” value in series [2] was “Active”. For the same compound, in series [3], the result was Active.
In the case of `CO[C@H]1C[C@@H](C)C/C(C)=C/[C@@H](C/C=C/c2ccnc(N)c2)C(=O)C[C@H](O)[C@@H](C)[C@@H](/C(C)=C/[C@@H]2CC[C@@H](O)[C@H](OC)C2)OC(=O)[C@@H]2CCCCN2C(=O)C(=O)[C@]2(O)O[C@H]1[C@@H](OC)C[C@H]2C`, the Activity result in the series on HUVEC [1] was “Toxic”; in series [5], “Dose-dependent effect”. Moreover, the “inhibition (INH)” value in series [4] is reported as “Not Active”. Also, the result in series [3] was Active.
As to `CNc1ccc(/C=C/C[C@@H]2/C=C(\C)C[C@H](C)C[C@H](OC)[C@H]3O[C@@](O)(C(=O)C(=O)N4CCCC[C@H]4C(=O)O[C@H](/C(C)=C/[C@@H]4CC[C@@H](O)[C@H](OC)C4)[C@H](C)[C@@H](O)CC2=O)[C@H](C)C[C@@H]3OC)cc1`, the Activity entry in the series on HUVEC [1] is listed as “Toxic”. The “inhibition (INH)” value in series [2] is “Active”. Also, in series [3], the result was Active.
Consider `C=CC[C@@H]1/C=C(\C)C[C@H](C)C[C@H](OC)[C@H]2O[C@@](O)(C(=O)C(=O)N3CCCC[C@H]3C(=O)O[C@H](/C(C)=C/[C@@H]3CC[C@@H](O)[C@H](OC)C3)[C@H](C)[C@@H](O)CC1=O)[C@H](C)C[C@@H]2OC` [TACROLIMUS ANHYDROUS], for which the Activity entry is “Toxic” with HUVEC [1] and “Dose-dependent effect” in series [5]. Also, the “inhibition (INH)” value in series [2] is listed as “Active”. The result in series [3] was Active.
With `CO[C@H]1C[C@@H](C)C/C(C)=C/[C@@H](C/C=C/c2ccnc3ccccc23)C(=O)C[C@H](O)[C@@H](C)[C@@H](/C(C)=C/[C@@H]2CC[C@@H](O)[C@H](OC)C2)OC(=O)[C@@H]2CCCCN2C(=O)C(=O)[C@]2(O)O[C@H]1[C@@H](OC)C[C@H]2C`, the Activity entry in the series on HUVEC [6] is recorded as “Toxic”. Besides, the “inhibition (INH)” value in series [2] is recorded as “Active”. Moreover, the outcome in series [3] was Active.
On to `CO[C@H]1C[C@@H](C)C/C(C)=C/[C@@H](C/C=C/c2ccncc2N)C(=O)C[C@H](O)[C@@H](C)[C@@H](/C(C)=C/[C@@H]2CC[C@@H](O)[C@H](OC)C2)OC(=O)[C@@H]2CCCCN2C(=O)C(=O)[C@]2(O)O[C@H]1[C@@H](OC)C[C@H]2C`, for which the Activity result with HUVEC [1] is “Toxic”; in series [5], “Dose-dependent effect”. Further, the “inhibition (INH)” value in series [4] was “Not Active”. Moreover, in series [3], the result was Active.
In the case of `CO[C@H]1C[C@@H](C)C/C(C)=C/[C@@H](C/C=C/c2ccc(N)cc2)C(=O)C[C@H](O)[C@@H](C)[C@@H](/C(C)=C/[C@@H]2CC[C@@H](O)[C@H](OC)C2)OC(=O)[C@@H]2CCCCN2C(=O)C(=O)[C@]2(O)O[C@H]1[C@@H](OC)C[C@H]2C`, in the series on HUVEC [1], the Activity result is recorded as “Toxic”. Also, the “inhibition (INH)” value in series [2] is reported as “Active”. The outcome in series [3] was Active.
Turning to `CO[C@H]1C[C@@H](C)C/C(C)=C/[C@@H](C/C=C/c2ccnc3c(F)c(F)ccc23)C(=O)C[C@H](O)[C@@H](C)[C@@H](/C(C)=C/[C@@H]2CC[C@@H](O)[C@H](OC)C2)OC(=O)[C@@H]2CCCCN2C(=O)C(=O)[C@]2(O)O[C@H]1[C@@H](OC)C[C@H]2C`, the Activity entry in the series on HUVEC [6] is “Toxic”. In addition, the “inhibition (INH)” value in series [2] is listed as “Active”. For the same compound, in series [3], the result was Active.
As for `CO[C@H]1C[C@@H](C)C/C(C)=C/[C@@H](C/C=C/c2ccncc2F)C(=O)C[C@H](O)[C@@H](C)[C@@H](/C(C)=C/[C@@H]2CC[C@@H](O)[C@H](OC)C2)OC(=O)[C@@H]2CCCCN2C(=O)C(=O)[C@]2(O)O[C@H]1[C@@H](OC)C[C@H]2C`, the Activity result with HUVEC [1] is reported as “Toxic”. In addition, the “inhibition (INH)” value in series [2] was “Active”. The outcome in series [3] was Active.
On to `CO[C@H]1C[C@@H](C)C/C(C)=C/[C@@H](C/C=C/c2ccncc2)C(=O)C[C@H](O)[C@@H](C)[C@@H](/C(C)=C/[C@@H]2CC[C@@H](O)[C@H](OC)C2)OC(=O)[C@@H]2CCCCN2C(=O)C(=O)[C@]2(O)O[C@H]1[C@@H](OC)C[C@H]2C`, for which the Activity entry was “Toxic” with HUVEC [1] and “Dose-dependent effect” in series [5]. In series [4], the “inhibition (INH)” value is recorded as “Not Active”. Besides, the outcome in series [3] was Active.
`CO[C@H]1C[C@@H](C)C/C(C)=C/[C@@H](C/C=C/c2ccnc3cc(F)ccc23)C(=O)C[C@H](O)[C@@H](C)[C@@H](/C(C)=C/[C@@H]2CC[C@@H](O)[C@H](OC)C2)OC(=O)[C@@H]2CCCCN2C(=O)C(=O)[C@]2(O)O[C@H]1[C@@H](OC)C[C@H]2C`: in the series with HUVEC [6], the Activity entry is “Toxic”. Also, the “inhibition (INH)” value in series [2] is “Active”. The outcome in series [3] was Active.
Take `CO[C@H]1C[C@@H](C)C/C(C)=C/[C@@H](C/C=C/c2ccccc2N)C(=O)C[C@H](O)[C@@H](C)[C@@H](/C(C)=C/[C@@H]2CC[C@@H](O)[C@H](OC)C2)OC(=O)[C@@H]2CCCCN2C(=O)C(=O)[C@]2(O)O[C@H]1[C@@H](OC)C[C@H]2C`: in the series with HUVEC [1], the Activity result is reported as “Toxic”. In addition, the “inhibition (INH)” value in series [2] was “Active”. For the same compound, in series [3], the outcome was Active.
